Test results reported in article PMC4944145, “New paradigms for understanding and step changes in treating active and chronic, persistent apicomplexan infections” (Scientific Reports, 2016).
Values after ≈ are worked out from the molar mass of the structure shown. “Also recorded” adds a separate entry of the source. Like-named read-outs stand apart in the source and are kept apart here.

Tests used:
[1] = test system: P. falciparum Dd2 parasite lines; experiment: P. falciparum whole-cell SYBR Green EC50, Dd2 and cytochrome b mutant / scDHODH lines; type: cell-based; conditions: Plasmodium falciparum
Protocol: We used the following parasite line from the MR4 repository of the American Type Culture Collection (ATCC): Dd2 (MRA-156). Mutant Dd2 parasites harboring a G33A or G33V substitution in cytochrome b were as reported^S77. Dd2 parasites with a G131S mutation in cytochrome b and transgenic lines expressing a chromosomally integrated copy of the S. cerevisiae DHODH were utilized as previously described^S78. Parasites were cultured by standard methods in RPMI media supplemented with 5% human O^+ serum and 0.25% AlbuMAX® II (Life Technologies 11021–045)^S79.
Drug susceptibility was measured using the SYBR Green method^S75. Twelve point curves based on 2-fold dilutions of the test compound were carried out in triplicate each day and replicated on at least three different days. EC50 values were calculated using a nonlinear regression curve fit in Prism 6.0 for Mac (GraphPad Software, Inc.).

[2] = test system: P. falciparum Dd2 parasites; experiment: Isobologram, modified fixed ratio drug combinations; type: cell-based, Plasmodium falciparum; conditions: for interaction in combination with MJM170: Dd2 parasites, synergy combined FIC < 1.0, additivity FIC = 1.0, antagonism FIC > 1.0; for FIC ATV: MJM170 + ATV; for FIC CYG: MJM170 + CYG
Protocol: Isobologram experiments were performed in similar fashion utilizing the modified fixed ratio methodology^S76. […] EC50 values were calculated as above, and FICs were calculated for each drug combination as described^S76. Synergy was defined as an FIC < 1.0, additivity as FIC = 1.0, and antagonism as FIC > 1.0.

T. gondii cysts = conditions: cited from earlier work
[3] = test system: T. gondii tachyzoites (RH-YFP strain); experiment: T. gondii tachyzoite assay (RH-YFP in HFF, fluorescence); type: cell-based; conditions: Toxoplasma gondii
Protocol: (§1) Vivo-PMO (Vivo porter linked to morpholinos) to knock down cytochrome b and an off-target PPMO (Vivo porter) were utilized at concentrations of 5 and 10 μM as previously described with both cultures of RH-YFP tachyzoites and EGS^S14. Morpholino sequence for cytochrome b/c knockdown is 5′ […] 3′, and for unrelated sequence, off target, is 5′ […]-[…] 3′.
Human foreskin fibroblasts (HFF) were cultured on a flat, clear-bottomed, black 96-well plate to 90% to 100% confluence. IMDM (1x, [+] glutamine, [+] 25 mM HEPES, [+] Phenol red, 10% FBS [gibco, Denmark]) was removed from each well and replaced with IMDM-C(1x, [+] glutamine, [+] 25 mM HEPES, [−] Phenol red, 10% FBS)[Gibco, Denmark]). Type I RH parasites expressing Yellow Fluorescent Protein (RH-YFP) were lysed from host cells by double passage through a 27-gauge needle. Parasites were counted and diluted to 32,000/mL in IMDM-C. Fibroblast cultures were infected with 3200 tachyzoites of the Type I RH-YFP strain and returned to incubator at 37 °C for 1–2 hours to allow for infection ^S12–15;S18,19;S25. […] The plates were read using a fluorimeter (Synergy H4 Hybrid Reader, BioTek) To ascertain the amount of yellow fluorescent protein, in relative fluorescence units (RFU), as a measure of parasite burden after treatment. […] Data was collected using Gen5 software and analyzed with Excel.

[4] = test system: T. gondii bradyzoites (EGS strain); experiment: EGS strain bradyzoite (cyst) assay in HFF; type: cell-based, Toxoplasma gondii
Protocol: as §1
HFF cells were grown in IMDM (1x, [+] glutamine, [+] 25 mM HEPES, [+] Phenol red, 10% FBS, [Gibco, Denmark]) on removable, sterile glass disks in the bottom of a clear, flat-bottomed 24-well plate. Cultures were infected with 3 × 10^4 parasites (EGS strain) per well, in 0.5 mL media and plate was returned to incubator at 37 °C overnight. The following day, the media was removed and clear IMDM and compounds were added to making various concentrations of the drug, to a total volume of 0.5 mL. Two wells were filled with media only, as a control. Plates were returned to the 37 °C incubator for 72 hours.
Efficacy was determined following fixation. Staining was used to determine the numbers of cysts in cultures without and with treatment with the test compounds. Cells were fixed using 4% paraformaldehyde and stained with Fluorescein-labeled Dolichos Biflorus Agglutinin, DAPI, and anti-BAG1, and anti-SAG1. Disks were removed and mounted onto glass slides and visualized using microscopy (Nikon Tl7). Slides were also scanned using a CRi Pannoramic Scan Whole Slide Scanner and viewed using Pannoramic Viewer Software.

P. falciparum = P. falciparum in vitro assay (D6, TM91C235, W2, C2B strains); type: cell-based; conditions: Plasmodium falciparum
Protocol: D6 is a drug sensitive strain from Sierra Leone, C235 is a multi-drug resistant strain from Thailand, W2 is a chloroquine resistant strain from Thailand, and C2B has resistance to a variety of drugs including atovaquone. These assays were performed as described^S74.

[5] = HFF toxicity assay (WST-1); type: cell-based; conditions: human, HFF cells (confluent monolayer)
Protocol: Toxicity assays were conducted using WST-1 cell proliferation reagent (Roche) as described^S12–15;S18,19. HFF were grown on a flat, clear-bottomed, black 96-well plate. Confluent HFF were treated with inhibitory compounds at concentrations equal to those being tested in challenge assays. Compounds were diluted in IMDM-C, and 20 μl were added to each designated well, with triplicates for each condition. A gradient of 2 fold-decreasing concentrations of DMSO in clear IMDM-C was used as a control. The plate was incubated for 72 hours at 37 °C. 10 μl of WST-1 reagent (Roche) were added to each well and the cells were incubated for 30 to 60 minutes. Absorbance was read using a fluorometer at 420 nm. A higher degree of color change (and absorbance) indicated mitochondrial activity and cell viability.

[6] = test system: S. cerevisiae wild type parental AD1-9 strain; experiment: S. cerevisiae growth inhibition (disk), wild type; type: cell-based, Saccharomyces cerevisiae; conditions: glycerol medium, 1mM, 100, 5 and 1 μM
Protocol: Three S. cerevisiae strains were used: M221Q and M221F cytochrome b mutants and wild type. They share the same nuclear genetic background deriving from AD1–9 (kindly given by M.Ghislain, UCL, Belgium). AD1–9 harbors multiple deletions in the ABC transporter genes that render the strain more sensitive to drugs than standard yeast strains^S65.
Protocol from^S68: Yeast strains were grown over 48 hours at 33 °C in liquid YPG medium [1% yeast extract, 2%(wt/vol) peptone, and 3%(vol/vol) (glycerol). Cultures were diluted to an OD600 of 0.05 and grown for 2 hrs. Cultures were then combined with YPG containing 6% melted agar for a total volume of 15–20 mL and poured onto OmniTray single-well rectangular plates that measured 86 mm by 128 mm (ThermoScientific) . Filter paper disks (7 mm diameter, […]) were placed onto the cooled agar plates. […] A single disk with DMSO on each plate was used as a control. Plates were incubated at 33 °C. Images were obtained after 4 days using GelDoc XR Imaging System (BioRad) and Quantity One software. Drug effect was assessed by the presence and size of a zone of inhibition around the disks.

[7] = test system: yeast with a mutation in the Qi site; conditions: cited from earlier work
[8] = Human microsomal stability
[9] = Mouse microsomal stability
[10] = Aqueous kinetic solubility PBS pH 7.4

In the case of `O=C1C(O)=C([C@H]2CC[C@H](c3ccc(Cl)cc3)CC2)C(=O)c2ccccc21` [Atovaquone, atovaquone], the EC50 ([1]; DD2, Dd2) is reported as 0.461 ± 0.14 nM, the EC50 ([1]; DD2, Dd2-attB) is reported as 1.11 ± 0.27 nM and the EC50 ([1]; DD2, Dd2-scDHODH) is reported as greater than 50 nM. For the same compound, the EC50 ([1]; DD2, Dd2: G33A) was 0.365 ± 0.053 nM, the EC50 ([1]; DD2, Dd2: G33V) was 3.85 ± 7.1 nM and the EC50 ([1]; DD2, Dd2: G131S) was 0.479 ± 0.17 nM. For the same compound, the “interaction in combination with MJM170” value [2] was “Slight synergy; also recorded: modest synergy”, the “interaction in combination with MJM170” value ([2]; listed as atovoquone) was “modestly synergistic” and the “FIC ATV” value ([2]; ratio 2:8) was 0.82 ± 0.05. For the same compound, the “FIC ATV” value ([2]; ratio 4:6) was 0.72 ± 0.1, the “FIC ATV” value ([2]; ratio 6:4) was 0.52 ± 0.1 and the “FIC ATV” value ([2]; ratio 8:2) was 0.35 ± 0.06. For the same compound, the “effect on cyst burden in mice” value (T. gondii cysts) was “partially, and transiently, limits cyst burden in mice”.
`C[C@H]1[C@H](OC(=O)CCC(=O)O)O[C@@H]2O[C@@]3(C)CC[C@H]4[C@H](C)CC[C@@H]1[C@@]24OO3` [Artesunate] showed an EC50 ([1]; DD2, Dd2) of 2.95 ± 0.94 nM, an EC50 ([1]; DD2, Dd2-attB) of 4.4 ± 2.3 nM and an EC50 ([1]; DD2, Dd2-scDHODH) of 3.97 ± 2.3 nM. It also gave an EC50 ([1]; DD2, Dd2: G33A) of 2.53 ± 0.69 nM, an EC50 ([1]; DD2, Dd2: G33V) of 2.08 ± 1.4 nM and an EC50 ([1]; DD2, Dd2: G131S) of 3.38 ± 0.48 nM.
For `CC1(C)N=C(N)N=C(N)N1c1ccc(Cl)cc1` [cycloguanil], the “interaction in combination with MJM170” value [2] was “additive effect”, the “FIC CYG” value ([2]; ratio 2:8) was 0.036 ± 0.01 and the “FIC CYG” value ([2]; ratio 4:6) was 0.089 ± 0.03. For the same compound, the “FIC CYG” value ([2]; ratio 6:4) was 0.2 ± 0.05 and the “FIC CYG” value ([2]; ratio 8:2) was 0.41 ± 0.003.
For `Cc1[nH]c2ccccc2c(=O)c1-c1ccc(Oc2ccc(OC(F)(F)F)cc2)cc1` [ELQ 271], the IC50 [3] was 30 nM, the “effect on EGS bradyzoites in cysts in vitro” value [4] was “inhibited EGS in vitro” and the “effect on EGS cysts in vitro” value ([4]; 10 μM) was “reduce the EGS cysts in vitro”. The IC50 ([4]; Toxoplasma gondii, EGS strain cysts in HFF) was 1000 nM, the IC50 (P. falciparum; C2B strain, multi-drug resistant, pronounced resistance to atovaquone) was 130 nM and the IC50 (P. falciparum; D6 strain (Sierra Leone), drug sensitive) was 30 nM. The IC50 (P. falciparum; TM91C235 strain (Thailand), multi-drug resistant) was 90 nM, the IC50 (P. falciparum; W2 strain (Thailand), chloroquine resistant) was 100 nM and the CC50 at 72 h [5] was 20 µM. For the same compound, the “growth inhibition of wild type yeast” value [6] was “effective”, the “effect on brain cyst numbers in mice” value (T. gondii cysts; mouse model, listed as ELQ271) was “partially reduce cyst numbers in mice” and the “effect on brain cyst numbers in mice” value (T. gondii cysts; mouse model; listed as ELQ) 271) was “reduce, but not eliminate, brain cyst numbers in mice”. The “activity against yeast with a mutation in the Qi site” value [7] was “ineffective”, the solubility (FaSSIF solubility pH 6.5) was 3.4 µM (≈ 1.4 µg/mL) and the half-life ([8]; human, human microsomes) was 172 min. For the same compound, the human microsomal stability ([8]; rounded) was 172 min, the mouse microsomal stability [9] was greater than 200 min and the half-life ([9]; mouse, mouse microsomes) was greater than 200 min. For the same compound, the solubility kinetic [10] was 0.15 µM (≈ 0.0617 µg/mL).
